The assay has as its system drug-resistant Mycobacterium tuberculosis.

Where two headings read alike, the source gives them in different places. Where no end group is shown, it is not given here.

As to `CCNC(=O)[C@@H]1CCCN1C(=O)[C@H](CCCN=C(N)N)NC(=O)[C@H](CC(C)C)NC(=O)[C@@H](Cc1c[nH]c2ccccc12)NC(=O)[C@H](Cc1ccc(O)cc1)NC(=O)[C@H](CO)NC(=O)[C@H](Cc1c[nH]c2ccccc12)NC(=O)[C@H](Cc1cnc[nH]1)NC(=O)[C@@H]1CCC(=O)N1` [Peptide 1, Pyr-His-Trp-Ser-Tyr-D-Trp-Leu-Arg-Pro-NHEt], the “inhibition of the growth of Mycobacterium tuberculosis” value (drug-resistant, 5 micrograms per ml) came out at 100%.
“Ile-Asn-Leu-Lys-Ala-Leu-Ala-Ala-Leu-Ala-Lys-Lys-Ile-Leu-NH2 (INLKALAALAKKIL-NH2) [Peptide 2]”: the “inhibition of the growth of Mycobacterium tuberculosis” value was 100%.

(Values after patent US20100184698A1, “USE OF A […] […] A […] AGENT” (priority 2007, published 2010).)
